These results are taken from US20060093690A1, “Novel therapeutic use of polypodium extracts” (Especialidades Farmaceuticas Centrum, S.A., priority 2002, published 2006).

Data set [1] has as its system Peyronie's patients. The data set can be described thus: Clinical trial on 34 Peyronie's patients for 6 months, Polypodium versus Tamoxifen. It counts as in vivo, human. Here is the method: (§1) The obtained results were statically significant.
(§2) The patients of Polypodium group were treated with 720 mg of Polypodium extract, orally, at 8-hourly intervals.
(§3) The patients of Tamoxifen group were treated with 20 mg of Tamoxifen, orally, at 24-hourly intervals.
The age was similar in both groups.
The plaque was assessed by physical examination and penis ecography.
Penis incurvation was assessed by photograph.

The next data set concerns TGF-β. Description: TGF-β production in Peyronie's patients post treatment. It counts as in vivo, human. Conditions: compared with initial values, Tamoxifen group. Here is the method: as §1, §2, §3
A 22% post treatment decrease in TGF-β production was found in Polypodium group when compared with initial values, against 5% in Tamoxifen group.

The test system of a further data set is IL-10. The data set can be described thus: IL-10 production in Peyronie's patients post treatment. It counts as in vivo, human. Conditions: compared with initial values. Here is the method: as §1, §2, §3
Also, a 17% post treatment decrease in IL-10 production in Polypodium group when compared with initial values, against 79% in Tamoxifen group.

For data set [2] the following is noted: on administration; cited from earlier work.
For the next data set, the system named is Peyronie's disease. As to conditions: comparative clinical study; cited from earlier work.
Data set [3] deals with Peyronie's patients. As to conditions: 60 patients, 10 months; cited from earlier work.
The subject of the next data set is TFG-β expression. As to conditions: rats, Peyronie's disease by injection of TGF-β in penis; cited from earlier work.
[4] abbreviates: 6 months, oral, assessed by photograph.
Where [5] appears, read: 6 months, oral, physical examination and penis ecography.

Each structure is given as a SMILES string.

Take `CC/C(=C(\c1ccccc1)c1ccc(OCCN(C)C)cc1)c1ccccc1` [Tamoxifen]: in the data set with Peyronie's patients [1] (6 months, oral), the “Coital difficulty, Improv, % of patients” value was 40%; the “Coital difficulty, Improv, number of patients” value worked out at 6; the “Coital difficulty, Same, % of patients” value is given as 20%; the “Coital difficulty, Same, number of patients” value is given as 3. Also, in the data set on Peyronie's patients [1] (6 months, oral), the “Coital difficulty, Worse, % of patients” value was 40%; the “Coital difficulty, Worse, number of patients” value was found to be 6; the “Pain, Improv, % of patients” value was determined as 66%; the “Pain, Improv, number of patients” value is recorded as 10. In addition, in the data set with Peyronie's patients [1] (6 months, oral), the “Pain, Same, % of patients” value was found to be 33%; the “Pain, Same, number of patients” value came out at 5; the “Pain, Worse, number of patients” value is 0; the “Penis incurvation, Same, % of patients” value came out at 33%. In addition, in the data set on Peyronie's patients [1] (6 months, oral), the “Penis incurvation, Same, number of patients” value was determined as 5; the “Penis incurvation, Worse, % of patients” value is recorded as 20%; the “Penis incurvation, Worse, number of patients” value was found to be 3; the “Plaque, Same, % of patients” value worked out at 53%. For the same compound, in the data set on Peyronie's patients [1] (6 months, oral), the “Plaque, Same, number of patients” value is reported as 8; the “Plaque, Worse, % of patients” value came to 20%; the “Plaque, Worse, number of patients” value is on record as 3. In the data set on Peyronie's patients [1] (setting [4]), the “Penis incurvation, Improv, % of patients” value was found to be 46% and the “Penis incurvation, Improv, number of patients” value is listed as 7. In the data set on Peyronie's patients [1] (setting [5]), the “Plaque, Improv, % of patients” value is reported as 27% and the “Plaque, Improv, number of patients” value is 4. Also, in the data set with Peyronie's patients [1] (after treatment), the “patients of group satisfied after treatment” value was 45%. Also, the “post treatment decrease in TGF-β production” value in the data set on TGF-β is listed as 5%. The “post treatment decrease in IL-10 production” value in the data set with IL-10 was found to be 79%. Moreover, the adverse effects entry in data set [2] is “diminution of sexual desire and diminution of the eyaculate”. For the same compound, the results versus placebo in the data set on Peyronie's disease is reported as “similar”.

As to `COc1cc2c(c(OC)c1OC)-c1ccc(OC)c(=O)cc1[C@@H](NC(C)=O)CC2` [colchicin], in the data set with Peyronie's patients [3], the “penis incurvature improved, % of patients” value is 30%; the “penis incurvature no change/unchanged, % of patients” value is on record as 48%; the “penis incurvature worse/deteriorated, % of patients” value is reported as 22%. Moreover, the “effect on TFG-β expression” value in the data set on TFG-β expression is listed as “reduces TFG-β expression”.
